Laboratory results as given in publication PMC10928712, “High Target Homology Does Not Guarantee Inhibition: Aminothiazoles Emerge as Inhibitors of Plasmodium falciparum” (ACS Infectious Diseases, 2024).

Assays:
[1] = test system: P. falciparum 3D7; test: Method II growth-inhibition assay (PicoGreen, 3 days), 3D7; assay type: cell-based; conditions: Plasmodium falciparum, 3D7, method II
From the text: (§1) Fidock (Columbia University).

[2] = test system: P. falciparum NF54; test: Method II growth-inhibition assay (PicoGreen, 3 days), NF54; assay type: cell-based; conditions: Plasmodium falciparum; chloroquine-sensitive NF54, method II
From the text: as §1

[3] = test system: Hep G2 cells; test: Hep G2 viability assay (counter screen); assay type: cell-based, human; conditions: cytotoxicity, 48 h
Method: HepG2 cells (2 × 10^5 cells per well) were seeded in 24-well, flat-bottomed plates. Culturing of cells, incubations, and OD measurements were performed as described previously with small modifications.[58] 24 h after seeding the cells, the incubation was started by the addition of compounds in a final DMSO concentration of 1%. The metabolic activity of the living cell mass was determined after 48 h. At least three independent measurements were performed for each compound. The IC50 values were determined during logarithmic growth using GraphPad Prism software. All experiments were performed at least in triplicate, and data reported represent the mean ± SD.

[4] = test system: P. falciparum 3D7; test: IDP rescue assay, P. falciparum 3D7; assay type: cell-based; conditions: Plasmodium falciparum
Method: (§2) Fidock (Columbia University). […] P. falciparum cultures were treated as described in method II. For IDP (Isoprenoids.com) rescue experiments, 125 μM IDP was added to the appropriate wells for the duration of the experiment. The well-described DXR inhibitor FSM was used as a positive control. IC50 values were calculated by nonlinear regression analysis using GraphPad Prism software. All experiments were performed at least in triplicate, and data reported represent the mean ± SD.

[5] = test system: P. falciparum NF54; test: IDP rescue assay, P. falciparum NF54; assay type: cell-based; conditions: Plasmodium falciparum
Method: as §2

[6] = test system: MEP pathway and TCA cycle metabolites in P. falciparum 3D7; test: LC-MS/MS profiling of MEP pathway, TCA cycle, glycolytic and pentose phosphate metabolites in P. falciparum; assay type: cell-based, Plasmodium falciparum; conditions: 12 h
[7] = test system: P. falciparum 3D7 MOCK cell line; test: Growth inhibition of MOCK cell line (vector backbone only); assay type: cell-based; conditions: Plasmodium falciparum, 3D7, read-out: MOCK IC50, MOCK compared with 3D7-TPK+; single measurement; 95% CI in brackets
From the text: The open reading frame (ORF) encoding 1-deoxy-D-xylulose-5-phosphate synthase (PfDXPS; PF3D7_1337200) was amplified from genomic DNA isolated from unsynchronized P. falciparum 3D7 cultures using the Platinum PCR SuperMix High Fidelity (Invitrogen). Forward and reverse primers contained restriction sites for KpnI and AvrII in sense and antisense orientation, respectively (oligonucleotides pfDXPS-Kpn1-S: […]; pfDXPSmyc-Avr2-AS: […] ). PCR products and the transfection vector pARL1a-hDHFR PfARG-GFP were digested with KpnI and AvrII, purified (Gel extraction Kit and PCR purification kit; Qiagen), and cloned into the transfection vector yielding the construct for overexpression pARL-DXS-strep. XL 10-Gold E. coli ultracompetent cells (Agilent Technologies) were transformed with the generated construct to amplify the plasmid and colonies checked using restriction analysis and sequencing of the plasmid. Bacterial clones carrying the overexpression construct and the empty pARL1a vector (MOCK plasmid) were amplified in overnight cultures, isolated (Plasmid Maxi Kit; QIAGEN), and subsequently used to transfect P. falciparum 3D7 ring-stage parasites, as already described.[59] Briefly, 120 μg of plasmid DNA was centrifuged and air-dried, and the pellet was resuspended in TE buffer and cytomix reagent and mixed with the P. falciparum culture. Parasites were transfected using electroporation and selected with WR 99210. The generation and characterization of the PfTPK overexpression cell line has been reported before.[60]
(§3) P. falciparum cultures were treated as described in method I. For target specification toward PfTPK and PfDXPS, compounds were tested in comparison against overexpressing cell lines and the respective MOCK line containing only the transfected vector backbone. Parasite viability/proliferation was determined.

[8] = test system: P. falciparum 3D7-TPK+; test: Growth inhibition of PfTPK overexpressing parasites (3D7-TPK+); assay type: cell-based; conditions: Plasmodium falciparum, 3D7, read-out: PfTPK IC50
Method: as §3, with “determined. Analysis of the IC50 values and interpretation of the curves was performed, as described in Section 4.1.2.44.” for “determined.”
eq 1: Fluorescence data normalization [drawing 2] where y is the fluorescence signal in each well, yminimum is the background fluorescence, and ymaximum is the highest measured fluorescence signal in the untreated wells. Drug concentrations (in μM) were transformed to the log(10)of the values. Means of each independent experiment were plotted as individual values, and the SD of the mean from the means shown as error bars. […] In case of transgenic cell lines, the built-in comparison Akaike’s information criteria (AICc) method was applied to the Log IC50s of the different cell lines. The test calculates a percentage probability of the simpler model “Log IC50 is the same for datasets” being correct. The test for homoscedasticity was performed to confirm if no weighting of values was appropriate.

[9] = molecular target: M. tuberculosis DXPS; set-up: method as in PMID 36320685; conditions: Morrison inhibition constant, slow-, tight-binding; read-out: Ki* MtDXPS; cited from earlier work
[10] = test system: Mycobacterium tuberculosis H37Rv strain; set-up: method as in PMID 36320685; conditions: cited from earlier work
[11] = test system: MEP pathway metabolites in E. coli ΔTolC; test: LC-MS/MS profiling of MEP pathway metabolites in E. coli; conditions: 48 μM (10× the IC50), 2 h, pyruvate concentration drops
Method: Overnight cultures of E. coli ΔTolC were diluted 1:1000 in LB media and grown at 37 °C until reaching the mid logarithmic phase (OD600 = 0.67–7.2). […] For normalization, the OD600 was determined after 2 h of treatment with the inhibitor. Cells were pelleted by centrifugation for 5 min at 3000g at 4 °C. The supernatants were removed, and cells were washed twice with 1× PBS. The supernatants were removed, and the pellets were stored at −80 °C until analysis. […]
For pyruvate analysis from the E. coli samples, the LC separation was done on the Shimadzu Nexera II using the Poroshell 120 (Agilent, 2.7 μm, 150 × 2.1 mm) flowing at 0.5 mL/min. […] Metabolites were detected using MRM transitions that were previously optimized using standards. […] For quantification, an external standard curve was prepared using a series of standard samples containing different concentrations of metabolites and fixed concentration of the internal standard. […]

[12] = test system: blood-stage P. falciparum 3D7; conditions: Plasmodium falciparum

## Cc1nc(N)sc1-c1csc(Nc2ccc(C(F)(F)F)cc2)n1 [compound 1]
[1]; 95% CI in brackets, read-out: IC50 B
  IC50: 1600 nM
[1]; read-out: IC50 3D7-II
  IC50: 1700 ± 600 nM
[2]
  IC50: 800 ± 100 nM
[3]; Homo sapiens, HepG2, 48 h
  IC50: 54000 ± 2400 nM
[3]
  IC50: > 50000 nM
[4]; 3D7, 72 h, + IDP (125 μM)
  IC50: 2400 ± 200 nM
[4]; 3D7, without IDP
  IC50: 1900 ± 200 nM
[5]; NF54, 72 h, + IDP (125 μM)
  IC50: 500 nM
[5]; NF54, without IDP
  IC50: 800 ± 100 nM
[6]; 1 at 7.65 μM (5× IC50), UNT 1,163, P >0,99999
  DOXP, Mean of + 1: 1,163
[6]; 1 at 7.65 μM, UNT 11,24, P 0,720090
  MEcDP, Mean of + 1: 10,20
[6]; 1 at 7.65 μM, UNT 11,98, P 0,005029
  PEP, Mean of + 1: 5,297
[6]; 1 at 7.65 μM, UNT 13,48, P 0,003896
  GC3P, Mean of + 1: 6,757
[6]; 1 at 7.65 μM, UNT 14,78, P 0,037010
  3PGA, Mean of + 1: 8,127
[6]; 1 at 7.65 μM, UNT 17,23, P 0,044056
  G6P, Mean of + 1: 6,793
[6]; 1 at 7.65 μM, UNT 53,67, P 0,001940
  MAL, Mean of + 1: 23,30
[6]; 1 at 7.65 μM, UNT 61,07, P 0,050194
  2PGA, Mean of + 1: 31,49
[6]; 1 at 7.65 μM, UNT 64,80, P 0,008553
  CIT, Mean of + 1: 25,15
[6]; 1 at 7.65 μM, UNT 0,06667, P 0,587914
  CDP-ME, Mean of + 1: 0,07667
[6]; 1 at 7.65 μM, UNT 90,64, P 0,340281
  S7P, Mean of + 1: 54,93
[6]; 1 at 7.65 μM, UNT 102,5, P 0,030535
  PYR, Mean of + 1: 28,19
[6]; 1 at 7.65 μM, UNT 103,0, P 0,112890
  G1P/F6P, Mean of + 1: 57,13
[6]; 1 at 7.65 μM, UNT 104,2, P 0,388380
  LAC, Mean of + 1: 80,23
[6]; 1 at 7.65 μM, UNT 118,0, P 0,002161
  SUC, Mean of + 1: 60,23
[6]; 1 at 7.65 μM, UNT 0,1667, P 0,032540
  DMADP, Mean of + 1: 0,1033
[6]; 1 at 7.65 μM, UNT 0,2200, P 0,306022
  HDMADP, Mean of + 1: 0,1833
[6]; 1 at 7.65 μM, UNT 0,4233, P 0,070645
  MEP, Mean of + 1: 0,3100
[6]; 1 at 7.65 μM, UNT 1668, P 0,003295
  FUM, Mean of + 1: 727,7
[6]; 1 at 7.65 μM, UNT 1,877, P 0,144422
  ACO, Mean of + 1: 1,140
[6]; 1 at 7.65 μM, UNT 5,757, P 0,038874
  RU5P/RUP, Mean of + 1: 2,520
[7]
  IC50: 1180 nM
[8]
  IC50: 1760 nM
[9]
  Ki: 210 ± 30 nM
[10]
  MIC: 5 to 10 µM
[11]
  MEP pathway metabolite concentrations upon inhibitor treatment: all downstream metabolites of DXPS are increased
[12]
  IC50: 600 to 1700 nM
